These are literature values, as cited in patent US7749961B2, “Macrocyclic peptides active against the hepatitis C virus” (Boehringer Ingelheim International GmbH, priority 2004, dated 2010).

Each structure is given as a SMILES string.

The data set has as its system hepatitis C virus. The conditions noted are these: two day clinical trial.

Consider `COc1ccc2c(O[C@@H]3C[C@H]4C(=O)N[C@]5(C(=O)O)C[C@H]5/C=C\CCCCC[C@H](NC(=O)OC5CCCC5)C(=O)N4C3)cc(-c3csc(NC(C)C)n3)nc2c1` [BILN 2061], for which the “reduction of viral loads in patients infected with the hepatitis C virus” value is on record as “effective in rapidly reducing viral loads”.
